Patent US12486245B2, “Sequential multi-step flash nanoprecipitation for the formation of nanoparticles with high core loadings” (The Trustees of Princeton University, priority 2019, dated 2025)

Experiment: Water solubility
Format: physicochemical

SMILES: CCCCOc1ccc(OCCCC)c2c1-c1nc3nc(nc4[nH]c([nH]c5nc(nc-2n1)-c1c(OCCCC)ccc(OCCCC)c1-5)c1c(OCCCC)ccc(OCCCC)c41)-c1c(OCCCC)ccc(OCCCC)c1-3 [762Pc, 1,4,8,11,15,18,22,25-Octabutoxy-29H,31H-phthalocyanine]
- water solubility: negligible
